Assay results taken from paper PMC5641094, “A peptide antagonist of Prep1-p160 interaction improves ceramide-induced insulin resistance in skeletal muscle cells” (Oncotarget, 2017).
Where two headings read alike, the source gives them in different places.

Legend:
Prep1 mRNA = assay: Real-time RT-PCR of Prep1 mRNA in L6 cells; format: cell-based, rat; details: C2cer 10μM, 18h, normalized to GAPDH, three experiments in triplicate
Protocol: (§1) Figure 2 Effect of ceramides on Prep1 and p160 mRNA expression and of Prep1-p160 coprecipitation L6 cells were treated with C2cer (10μM) for 18h and Prep1 (A) or p160 (B) mRNA levels were analyzed by real-time RT-PCR analysis. Data were normalized by the amount of GAPDH mRNA, used as internal control. Bars represent the mean ± SD of three independent experiments, each performed in triplicate. (C) L6 cells were treated with cycloheximide (CHX) at 40μg/mL concentration for 18h and the lysates were analyzed by Western blot with anti-p160 and beta-actin. The autoradiograph shown is representative of three different experiments and subjected to densitometric analysis. (D) Protein lysates from L6 cells treated with C2cer as indicated, were immunoprecipitated with Prep1 antibody and immunoblotted with p160 or Prep1 antibodies. The autoradiograph shown is representative of three different experiments and subjected to densitometric analysis. Asterisks denote statistically significant differences (*p<0.05; **p<0.01).
(§2) Total cellular RNA was isolated from L6 cells by using the RNeasy kit (QIAGEN Sciences, Germany), according to manufacturer instructions. 1μg of cell RNA was reverse-transcribed using Superscript III Reverse Transcriptase (Life Technologies Carlsbad, CA, USA). PCR reactions were analyzed using IQTM SYBR Green Supermix (Bio-Rad, Hercules, CA). […]

p160 mRNA = assay: Real-time RT-PCR of p160 mRNA in L6 cells; format: cell-based, rat; details: C2cer 10μM, 18h, normalized to GAPDH
Protocol: as §1, §2

L6 cells = assay: Cell toxicity in L6 cells; format: cell-based, rat; details: highest concentration 100μM, data not shown
p160_20-160 = target: T1, p160_20-160 (Homo sapiens, UniProt Q9BQG0); assay: ELISA-like direct binding of biotinylated Prep1 peptides to coated p160_20-160; details: N-terminally biotinylated peptide variants; plate coated with p160_20-160 (0.1μM); streptavidin-HRP; one-site binding fit; triplicate, performed at least twice
T1 construct: were added to a plate coated with p160_20-160 (0.1μM); His6; made in house
T1 sequence (Q9BQG0 20-160): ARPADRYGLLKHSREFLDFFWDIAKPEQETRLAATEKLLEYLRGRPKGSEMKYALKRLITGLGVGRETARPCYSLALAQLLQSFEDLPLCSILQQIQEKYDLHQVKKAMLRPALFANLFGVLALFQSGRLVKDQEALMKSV
Description: To address the significance of the association between Prep1 and p160 mediated by C2cer, we generated a synthetic inhibitor of the Prep1/p160 interaction. […] The synthetic peptide covering such stretch of residues was therefore chosen to generate a potential inhibitor. […] Thus, we designed and chemically synthesized a peptide spanning residues 59-72, hereafter Prep1(59-72), which comprises the predicted α-helix and a short loop at the N-terminus (Supplementary Figure 2A, upper panel). […]
(§3) Figure 3 Design and in vitro effects of Prep1(54-72) peptide on Prep1/p160 association (A) Binding curves of Prep1(59-72) and Prep1(54-72) peptides to p160_20-160 by ELISA-like assays. […] (C) L6 cells were incubated with increasing concentrations of the fluorescein-conjugated peptide (FITC-Prep1(54-72)) and peptide uptake was detected by FACS analysis of fluorescein-labeled cells. […] Protein lysates were immunoprecipitated with Prep1 antibodies and analyzed by Western blot using antibodies for p160 or for Prep1. […] The blots were detected by ECL and autoradiography. […]
ELISA experiments were performed using an integrated platform for High-Throughput Screening (Hamilton Robotics, Bonaduz, CH) comprising a fully equipped Starlet 8 channel liquid handler, a robotic arm, a washer and a multi-wavelength plate reader. […] The binding was detected by anti-His HRP-conjugated antibody. […]

[1] = target: T2, p160_20-160/Prep1_45-155 binding (Homo sapiens, UniProt Q9BQG0); assay: ELISA-like competition of p160_20-160/Prep1_45-155 binding
T2 construct: pre-incubating the His6-tagged-p160_20-160 at 0.25μM with peptides; made in house
T2 sequence (Q9BQG0 20-160): T1 sequence (Q9BQG0 20-160)
Description: To address the significance of the association between Prep1 and p160 mediated by C2cer, we generated a synthetic inhibitor of the Prep1/p160 interaction. […] The synthetic peptide covering such stretch of residues was therefore chosen to generate a potential inhibitor. […] Thus, we designed and chemically synthesized a peptide spanning residues 59-72, hereafter Prep1(59-72), which comprises the predicted α-helix and a short loop at the N-terminus (Supplementary Figure 2A, upper panel). We also designed and prepared an additional peptide with a slightly longer N-terminal end, named Prep1(54-72) (Supplementary Figure 2A, lower panel), to increase the probability of obtaining a molecule with helical features. […] In order to test the affinity of Prep1 synthetic peptides to p160 protein, ELISA-like experiments were developed where N-terminally biotinylated peptide variants were added to p160_20-160 – coated 96-well plates. As shown in Figure 3A either variants bound p160_20-160 domain in a dose-dependent and saturable manner. […]
as §3
ELISA experiments were performed using an integrated platform for High-Throughput Screening (Hamilton Robotics, Bonaduz, CH) comprising a fully equipped Starlet 8 channel liquid handler, a robotic arm, a washer and a multi-wavelength plate reader. […] In particular, several concentrations of biotinylated peptides at several concentrations were added to a plate coated with p160_20-160 (0.1μM) and binding was detected with streptavidin-HRP. […] The binding was detected by anti-His HRP-conjugated antibody. […]

Kd (p160_20-160)	IC50 ([1]; His6-p160_20-160 0.25μM pre-incubated with peptide 0.001-10μM, plate coated with Prep1_45-155 (0.10μM), anti-His HRP, average of three experiments, read-out: IC50, inhibition of p160_20-160/Prep1_45-155 binding)	IC50 ([1]; as restated in the discussion, read-out: IC50, potency in vitro as complex inhibitor)	Compound	increase of Prep1 mRNA levels (Prep1 mRNA)	effect on p160 mRNA levels (p160 mRNA)	toxicity for the cells (L6 cells)
			CCCCCCCCCCCCC/C=C/[C@@H](O)[C@H](CO)NC(C)=O [C2cer, D-erythro-Sphingosine, N-Acetyl-, reference compound]	3.2 fold	not affected	slightly toxic
180 nM	200 nM	~200 nM	Ac-KQAIYRHPLFPLLALLFEK-NH2 [Prep1(54-72)]			
